Assay results: US4496591A, “Insecticidal bis-carbamate sulfides” (priority 1981, dated 1985)

Key:
Assay type in all cases: in vivo
[1] = system: housefly adults (Musca domestica); assay: Comparative residual effect in soil; conditions: for Residual effect in soil (mortality), 0 weeks / Residual Activity (weeks): soil concentration four times LD50, housefly; for Residual effect in soil (mortality), 0 weeks: 24 hours; for Residual effect in soil (mortality), 1 week / Residual effect in soil (mortality), 4 weeks: soil concentration four times LD50, 25° C., 90% relative humidity; for Residual effect in soil (mortality), 1 week: 10080 min; for Residual effect in soil (mortality), 4 weeks: 40320 min
Protocol: Selected species of the new compounds were evaluated for their residual pesticidal activity in soil. […] The residual activity test were conducted using five to seven-day old housefly adults (Musca domestica).
The soil mixture used was one part agricultural soil and three parts sand. The agricultural soil was stored in plastic bags in a freezer, immediately after removal from the field. This was done to reduce microbial multiplication. Two weeks prior to use, the soil was thawed and held at room temperature to allow microbial population to equilibrate. The sand and soil were sifted to remove clumps and debris and were then blended by rolling on a roller mill in a closed metal container. The moisture level was adjusted to 15% by weight.
The concentration in the soil of the compound to be tested was four times the amount (in parts per million) necessary to achieve a mortality rate of 50% on contact with the soil (LD50). This is in accordance with the procedure developed by C. R. Harris of the Research Institute, Canadian Department of Agriculture, London, Ontario. Such procedure is disclosed in "Biological Activity of Chloropyrifos, Chlorpyrifor-Methyl, Phorate, and Counter® in Soil", The Canadian Entomologist, Vol. 109, pp. 1115-1120 (August 1977); and in "Laboratory Studies on the Persistance of Biological Activity of Some Insecticides in Soils", Journal of Economic Entomology, Vol. 62, No. 6, pp. 1437-1441 (December 1969).
An appropriate amount of compound was dissolved in an acetone--Triton solution and was diluted with water. Five mililiters of the formulated chemical was applied to four ounces of soil mixture and rolled in a 16-ounce glass jar to blend the compound evenly with the soil. Ten mililiters of granular cane sugar was then mixed thoroughly with the treated soil in an eight-ounce plastic container.
Twenty-five housefly adults, anesthetized with CO2, were then transferred to the soil and were covered with a perforated plastic lid. The test containers were held for 24 hours in a constant environment at a temperature of 80±5° F. and a relative humidity of […]. Mortality was based on the ability of the fly to move in a normal manner without spinning.
The above process was repeated on treated soil which had been incubated at 25° C. and 90% relative humidity for 1, 4, 6 and 8 weeks after initial exposure. This was necessary because the soil is incubated without sugar, sugar being added at the time of reinfestation. For this reason, appropriate volumes of soil had to be treated at the start of the soil test to last for the expected residual period.

[2] = system: bean aphid (Aphis fabae Scop.); assay: Bean aphid foliage spray test; parameters: key: A: excellent control; B: partial control; C: no control at 500 ppm; conditions: 500 parts per million, 24 hour
Protocol: (§1) Suspensions of the test compounds were prepared by dissolving one gram of compound in 50 milliliters of acetone in which had been dissolved 0.1 gram (10 percent of the weight of compound) of an alkylphenoxy polyethoxyethanol surfactant, as an emulsifying or dispersing agent. The resulting solution was mixed into 150 milliliters of water to give roughly 200 milliliters of a suspension containing the compound in finely divided form. The thus-prepared stock suspension contained 0.5 percent by weight of compound. The concentrations in parts per million by weight employed in the tests described hereinbelow were obtained by appropriate dilutions of the stock suspension with water. The test procedures were as follows:
Adults and nymphal stages of the bean aphid (Aphis fabae Scop.) reared on potted dwarf nasturtium plants at 68°-70° F. and 50±5 percent relative humidity, constituted the test insects. For testing purposes, the number of aphids per pot were standardized to 100-150 by trimming plants containing excess aphids.
The test compounds were formulated by diluting the stock suspension with water to give a suspension containing 500 parts of test compound per million parts of final formulation.
The potted plants (one pot per compound tested) infested with 100-150 aphids, were placed on a revolving turntable and sprayed with 100-110 milliliters of test compound formulation by use of a DeVilbiss spray gun set at 40 psig. air pressure. This application, which lasted 25 seconds, was sufficient to wet the plants to run-off. As a control, 100-110 milliliters of a water-acetone-emulsifier solution containing no test compound was also sprayed on infested plants. After spraying, the pots were placed on their sides on a sheet of white standard mimeograph paper which had been previously ruled to facilitate counting. Temperature and humidity in the test room during the 24 hour holding period were 68°-70° F. and 50±5 percent, respectively. Aphids which fell onto the paper and were unable to remain standing after being uprighted were considered dead. Aphids remaining on the plants were observed closely for movement and those which were unable to move the length of the body upon stimulation by prodding were considered dead.
(§2) In these tests the pesticidal activity of the compounds at the indicated dosage rate against aphid, Southern Armyworm, Bean Beetle and housefly was rated as follows: […]

[3] = system: house flies (Musca domestica, L.); assay: Fly bait test; parameters: key: A: excellent control; B: partial control; C: no control at 500 ppm; conditions: 500 parts per million, sugar bait, twenty-four hours
Protocol: as §1
Four to six day old adult house flies (Musca domestica, L.), reared according to the specifications of the Chemical Specialties Manufacturing Association (Blue Book, McNair-Dorland Co., N.Y. 1954; pages 243-244, 261) under controlled conditions of 80±5° F. and 50±5 percent relative humidity, were the test insects. The flies were immobilized by anesthetizing them with carbon dioxide. Twenty-five immobilized individuals, males and females, were transferred to a cage consisting of a standard food strainer about five inches in diameter which was inverted over a wrapping-paper-covered surface. The test compounds were formulated by diluting the stock suspension with a 10 percent (by weight) sugar solution to give a suspension containing 500 parts of test compound per million parts of final formulation, by weight. Ten milliliters of the test formulation were added to a souffle cup containing a one-inch square of an absorbent cotton pad. This bait cup was introduced and centered on the blotting paper under the food strainer prior to admitting the anesthetized flies. The caged flies were allowed to feed on the bait for twenty-four hours, at a temperature of 80±5° F. and at a relative humidity of 50±5 percent.
as §2

[4] = system: southern armyworm (Spodoptera eridania, (Cram.)) larvae; assay: Southern armyworm leaf spray bait test; parameters: key: A: excellent control; B: partial control; C: no control at 500 ppm; conditions: 500 parts per million, three days
Protocol: as §1
Larvae of the southern armyworm (Spodoptera eridania, (Cram.)), reared on Tendergreen bean plants at a temperature of 80±5° F. and a reative humidity of 50±5 percent, constituted the test insects.
The test compounds were formulated by diluting the stock suspension with water to give a suspension containing 500 parts of test compound per million parts of final formulation. Potted Tendergreen bean plants of standard height and age were placed on a revolving turntable and sprayed with 100-110 milliliters of test compound formulation by use of a DeVilbiss spray gun set at 40 psig air pressure. This application, which lasted 25 seconds, was sufficient to wet the plants to run-off. As a control, 100-110 milliliters of a water-acetone-emulsifier solution containing no test compound were also sprayed on infested plants. When dry, the paired leaves were separated and each one was placed in a 9 centimeter Petri dish lines with moistened filter paper. Five randomly selected larvae were introduced into each dish and the dishes were closed. The closed dishes were labeled and held at 80°-85° F. for three days. Although the larvae could easily consume the whole leaf within twenty-four hours, no more food was added. Larvae which were unable to move the length of the body, even upon stimulation by prodding, were considered dead.
as §2

[5] = system: Mexican bean beetle (Epilachna varivestis, Muls.) larvae; assay: Mexican bean beetle leaf spray test; parameters: key: A: excellent control; B: partial control; C: no control at 500 ppm; conditions: 500 parts per million, fourth instar larvae, three days
Protocol: as §1
Fourth instar larvae of the Mexican bean beetle (Epilachna varivestis, Muls.), reared on Tendergreen bean plants at a temperature of 80±5° F. and 50±5° F. percent relative humdity, were the test insects.
The test compounds were formulated by diluting the stock suspension with water to give a suspension containing 500 parts of test compound per million parts of final formulation. Tendergreen bean plants of standard height and age were placed on a revolving turntable and sprayed with 100-110 milliliters of test compound formulation by use of a DeVilbiss spray gun set at 40 psig air pressure. This application, which lasted 25 seconds, was sufficient to wet the plants to run-off. As a control, 100-110 milliliters of a water-acetone-emulsifier solution containing no test compound was also sprayed on infested plants. When dry, the paired leaves were separated and each was placed in a 9 centimeter Petri dish lined with moistened filter paper. Five randomly selected larvae were introduced into each dish, and the dishes were closed. The closed dishes were labeled and held at a temperature of 80±5° F., for three days. Although the larvae could easily consume the leaf within 24 to 48 hours, no more food was added. Larvae which were unable to move the length of the body, even upon stimulation, were considered dead.
as §2

[6] = system: root-knot nematode, Meloidogyne incognita var. acrita; assay: Nematocide test; parameters: key: 1: severe galling, equal to untreated plants; 2: moderate galling; 3: light galling; 4: very light galling; 5: no galling, perfect control; conditions: 3.33 m.g. per jar, cucumber, approximately 3 weeks
Protocol: The test organism used was the infective migratory larvae of the root-knot nematode, Meloidogyne incognita var. acrita, reared in the greenhouse on roots of cucumber plants. Infected plants were removed from the culture, and the roots were chopped very finely. A small amount of this inoculum was added to a pint jar containing approximately 180 cc. of soil. The jars were capped and incubated for one week at room temperature. During this period eggs of the nematode were hatched, and the larval forms migrated into the soil.
Ten ml. of the test formulation were added to each of the two jars for each dosage tested. Following the addition of chemical, the jars were capped, and the contents thoroughly mixed on a ball mill for […].
The test compounds were formulated by a standard procedure of solution in acetone addition of an emulsifier, and dilution with water. Primary screening tests were conducted at 3.33 m.g. of the test compound per jar.
The jars were left capped at room temperature for a period of 48 hours, and the contents then transferred to 3 inch pots. Subsequently, the pots were seeded to cucumber as an indicator crop and placed in the greenhouse where they were cared for in the normal fashion for approximately 3 weeks.
The cucumber plants were then taken from the pots, the soil removed from the roots, and the amount of galling visually rated.
In the test for activity against nematodes activity was rated as follows: […]

[7] = system: egg of the Southern armyworm (Spodoptera eridania (Cram.)); assay: Southern armyworm ovicide test; parameters: key: A: excellent control; B: partial control; C: no control at 500 ppm; conditions: 500 parts per million, egg dip, four days
Protocol: as §1
The test organism was the egg of the Southern armyworm (Spodoptera eridania (Cram.)) as obtained from adults reared on Tendergreen bean plants at a temperature of 80±5° F. and a relative humidity of 50±5 percent. The eggs were laid on freezer paper (Marlon 717, Copco paper) and then cut into small sections containing one or two egg masses.
The test compounds were formulated by diluting the stock suspension with water to give a suspension containing 500 parts of test compound per million parts of final formulation. The egg masses were then dipped until they were thoroughly wet (5-10 seconds). They were then placed on a paper towel face up and were allowed to dry for 15-30 minutes. The dry eggs were placed in a 15×60 mm petri dish containing a cotton dental wick saturated with a 5 percent sodium chloride solution to maintain a high level of humidity. The closed dishes were labeled and held at a temperature of 80±5° F. for four days. Larvae that emerged from the egg, even if dead at the time of observation, were recorded as hatched.
as §2

Compound | Residual effect in soil (mortality), 0 weeks [1] | Residual effect in soil (mortality), 1 week [1] | Residual effect in soil (mortality), 4 weeks [1] | Residual Activity (weeks) [1] | Aphids, pesticidal activity rating [2] | Housefly, pesticidal activity rating [3] | Southern Armyworm, pesticidal activity rating [4] | Mexican Bean Beetle, pesticidal activity rating [5] | Root-Knot Nematode, galling rating [6] | Southern Armyworm (egg), pesticidal activity rating [7]
CNC(=O)ON=C(C)SC [Methomyl, methyl N[[(methylamino)carbonyl]oxy]ethanimidothioate] | 100 | 100 | 15 | less than 4 weeks | – | – | – | – | – | –
CSC(C)=NOC(=O)N(C)SN(C)C(=O)Oc1ccc(C(C)=O)cc1 [Compound 2] | – | – | – | – | A | A | A | A | 5 | A
CSC(C)=NOC(=O)N(C)SN(C)C(=O)Oc1ccc(C(=O)O)cc1 [Compound 4, S-Methyl-N-[[[N'-[[N"-[(4-hydroxycarbonylphenoxy)carbonyl]-N"-methylaminosulfenyl]]-N'-methylcarbamoyloxy]]]thioacetimidate] | – | – | – | – | B | A | A | A | – | –
CSC(C)=NOC(=O)N(C)SN(C)C(=O)Oc1ccc(C(C)=O)c(C)c1 [Compound 7] | – | – | – | – | A | A | A | A | 5 | A
COc1ccc(C(=O)c2ccccc2)c(OC(=O)N(C)SN(C)C(=O)ON=C(C)SC)c1 [Compound 10] | – | – | – | – | A | A | A | A | 5 | A
CSC(C)=NOC(=O)N(C)SN(C)C(=O)Oc1ccccc1C=O [Compound 8] | – | – | – | – | A | A | A | A | 4 | B
CSC(C)=NOC(=O)N(C)SN(C)C(=O)Oc1cccc(C)c1 [A] | 100 | 100 | 23 | less than 4 weeks | – | – | – | – | – | –
CSC(C)=NOC(=O)N(C)SN(C)C(=O)Oc1cc(C)c(C)c(C)c1 [B] | 100 | 100 | 0 | less than 4 weeks | – | – | – | – | – | –
